Assay results from ChEMBL document CHEMBL5505983, “Design, synthesis, and molecular modeling studies of novel 2-quinolone-1,2,3-triazole-α-aminophosphonates hybrids as dual antiviral and antibacterial agents” (Eur J Med Chem, 2024).
≈ marks a conversion by molar mass, not a printed value.

Key:
Staphylococcus aureus [1] = test: Ratio of MBC to MIC for Staphylococcus aureus CIP 54127; type: functional
[2] = Cytotoxicity against human Huh-7 cells; type: toxicity, cell-based
[3] = Cytotoxicity against African green monkey Vero E6 cells; type: toxicity, cell-based, Vero C1008; details: chlorocebus sabaeus
Chikungunya virus = test: Antiviral activity against CHIKV infected in African green monkey Vero A cells assessed as inhibition of cytopathic effect by microscopy based analysis; type: functional, organism-based
Enterococcus faecalis [4] = test: Antibacterial activity against Enterococcus faecalis assessed as reduction in bacterial growth by micro-broth dilution method; type: functional
Pseudomonas aeruginosa [5] = test: Bactericidal activity against Pseudomonas aeruginosa CIP A22; type: functional
[6] = Cytotoxicity against human HeLa-RH cells; type: toxicity, cell-based
Escherichia coli [7] = test: Antibacterial activity against Escherichia coli CIP 53154 assessed as reduction in bacterial growth by micro-broth dilution method; type: functional
Staphylococcus aureus [8] = test: Bactericidal activity against Staphylococcus aureus CIP 54127; type: functional
Yellow fever virus = test: Antiviral activity against Yellow fever virus infected in human Huh-7 cells assessed as inhibition of cytopathic effect by microscopy based analysis; type: functional, organism-based
Enterovirus A71 = test: Antiviral activity against human EV71 infected in human RD cells assessed as inhibition of cytopathic effect by microscopy based analysis; type: functional, organism-based; details: Enterovirus A
[9] = Selectivity index, ratio of CC50 for human HeLa-RH cells to IC50 for Human rhinovirus B14 infected in human HeLa-RH cells; type: toxicity, cell-based; details: read-out: Ratio CC50/IC50
Escherichia coli [10] = test: Bactericidal activity against Escherichia coli CIP 53154; type: functional
Human rhinovirus sp. [11] = test: Antiviral activity against Human rhinovirus A2 infected in human HeLa-RH cells assessed as inhibition of cytopathic effect by microscopy based analysis; type: functional, organism-based
[12] = Selectivity index, ratio of CC50 for African green monkey Vero A cells to IC50 for CHIKV infected in African green monkey Vero A cells; type: toxicity; details: read-out: Ratio CC50/IC50
Human rhinovirus sp. [13] = test: Antiviral activity against Human rhinovirus B14 infected in human HeLa-RH cells assessed as inhibition of cytopathic effect by microscopy based analysis; type: functional, organism-based
Escherichia coli [14] = test: Ratio of MBC to MIC for Escherichia coli CIP 53154; type: functional
Pseudomonas aeruginosa [15] = test: Ratio of MBC to MIC for Pseudomonas aeruginosa CIP A22; type: functional
Enterococcus faecalis [16] = test: Ratio of MBC to MIC for Enterococcus faecalis; type: functional
Staphylococcus aureus [17] = test: Antibacterial activity against Staphylococcus aureus CIP 54127 assessed as reduction in bacterial growth by micro-broth dilution method; type: functional
[18] = Cytotoxicity against human RD cells; type: toxicity, cell-based
Pseudomonas aeruginosa [19] = test: Antibacterial activity against Pseudomonas aeruginosa CIP A22 assessed as reduction in bacterial growth by micro-broth dilution method; type: functional
[20] = Cytotoxicity against African green monkey Vero A cells; type: toxicity, cell-based; details: chlorocebus sabaeus
Zika virus = test: Antiviral activity against Zika virus infected in african green monkey Vero E6 cells assessed as inhibition of cytopathic effect by microscopy based analysis; type: functional, organism-based; details: Vero C1008
Enterococcus faecalis [21] = test: Bactericidal activity against Enterococcus faecalis; type: functional
[22] = Selectivity index, ratio of CC50 for human Huh-7 cells to IC50 for Yellow fever virus infected in human Huh-7 cells; type: toxicity, cell-based; details: read-out: Ratio CC50/IC50

SMILES | Ratio (Staphylococcus aureus [1]) | CC50 [2] [µM] | CC50 [3] [µM] | IC50 (Chikungunya virus) [µM] | MIC (Enterococcus faecalis [4]) [µM] | MBC (Pseudomonas aeruginosa [5]) [µM] | CC50 [6] [µM] | MIC (Escherichia coli [7]) [µM] | MBC (Staphylococcus aureus [8]) [µM] | IC50 (Yellow fever virus) [µM] | IC50 (Enterovirus A71) [µM] | MBC (Escherichia coli [10]) [µM] | IC50 (Human rhinovirus sp. [11]) [µM] | selectivity ratio [12] | IC50 (Human rhinovirus sp. [13]) [µM] | Ratio (Escherichia coli [14]) | Ratio (Pseudomonas aeruginosa [15]) | Ratio (Enterococcus faecalis [16]) | MIC (Staphylococcus aureus [17]) [µM] | CC50 [18] [µM] | further results
CCOP(=O)(OCC)C(Nc1ccc(I)cc1)c1cc(Cn2cc(Cn3c(=O)cc(C)c4cc(F)ccc43)nn2)ccc1O (stereo not given) | 2 | 12.1 | > 100 | 33 | 50 (≈ 36.6 µg/mL) | 1710 (≈ 1250 µg/mL) | > 33.3 | 860 (≈ 629 µg/mL) | 220 (≈ 161 µg/mL) | > 33.3 | > 100 | 1710 (≈ 1250 µg/mL) | > 33.3 | > 3.03 | 10.9 | 1.99 | 1 | 1 | 110 (≈ 80.5 µg/mL) | > 100 | selectivity ratio [9]: > 3.06; MIC (Pseudomonas aeruginosa [19]): 1710 µM (≈ 1250 µg/mL); CC50 [20]: > 100 µM; IC50 (Zika virus): > 100 µM; MBC (Enterococcus faecalis [21]): 50 µM (≈ 36.6 µg/mL)
CCOP(=O)(OCC)C(Nc1ccc(C)cc1)c1cc(Cn2cc(Cn3c(=O)cc(C)c4cc(Br)ccc43)nn2)ccc1O (stereo not given) | 1 | 20 | > 33.3 | 56.1 | 60 (≈ 40.8 µg/mL) | 1840 (≈ 1250 µg/mL) | 29.1 | 460 (≈ 313 µg/mL) | 460 (≈ 313 µg/mL) | > 100 | > 100 | 930 (≈ 633 µg/mL) | > 0.41 | > 1.78 | 10.7 | 2.02 | 4 | 1 | 460 (≈ 313 µg/mL) | > 100 | selectivity ratio [9]: 2.73; MIC (Pseudomonas aeruginosa [19]): 1840 µM (≈ 1250 µg/mL); CC50 [20]: > 100 µM; IC50 (Zika virus): > 100 µM; MBC (Enterococcus faecalis [21]): 60 µM (≈ 40.8 µg/mL)
CCOP(=O)(OCC)C(Nc1ccccc1Br)c1cc(Cn2cc(Cn3c(=O)cc(C)c4ccccc43)nn2)ccc1O (stereo not given) | 1 | 30.1 | > 100 | 9.4 | 60 (≈ 40 µg/mL) | 3750 (≈ 2500 µg/mL) | 45.7 | 470 (≈ 313 µg/mL) | 120 (≈ 80 µg/mL) | 9.94 | > 100 | 470 (≈ 313 µg/mL) | > 1.23 | 2.49 | > 100 | 1 | 1.99 | 1 | 120 (≈ 80 µg/mL) | 70.2 | selectivity ratio [22]: 3.03; MIC (Pseudomonas aeruginosa [19]): 3750 µM (≈ 2500 µg/mL); CC50 [20]: 23.4 µM; IC50 (Zika virus): > 100 µM; MBC (Enterococcus faecalis [21]): 60 µM (≈ 40 µg/mL)
